From patent US10604509B2, “Nrf2 regulators” (GlaxoSmithKline Intellectual Property Development Limited, priority 2015, dated 2020)
Where a name gives a salt, the structure may show the parent alone.

These molecules were tested on NQO1 specific enzyme activity in BEAS-2B cells (assay: BEAS-2B NQO1 MTT assay). Conditions: BEAS-2B cells, 48 hours with compound, MTT readout; read-out: EC50 of NQO1 specific activity induction.
Format: cell-based
Method in brief: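 NQO1 specific activity, an NRF2 activation marker, read kinetically as absorbance change at 570 nm for 30 min after MTT cocktail addition to crude lysates of BEAS-2B cells exposed 48 h to compound. Three-parameter fit of Delta OD/min against log concentration gives EC50; lysate portion used for Cell Titer Glo.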

`CC[C@@H]1CN(Cc2cc([C@H](c3ccc4c(nnn4CC)c3C)[C@H](C)C(=O)O)ccc2C)Cc2ccccc2O1` [Example 101, Ammonium (2S,3R)-3-(3-(((R)-2-ethyl-2,3-dihydrobenzo[f][1,4]oxazepin-4(5H)-yl)methyl)-4-methylphenyl)-3-(1-ethyl-4-methyl-1H-benzo[d][1,2,3]triazol-5-yl)-2-methylpropanate] was tested, and the EC50 was less than 1 nM.

Same assay, conditions: Homo sapiens, BEAS-2B, 48 h, BEAS-2B cells, 48 hours with compound, MTT readout; read-out: EC50 of NQO1 specific activity induction

Compared with `Cc1c(C(CC(=O)O)c2ccc(Cl)c(CN3CCOc4ccccc4C3)c2)ccc2c1nnn2C` (stereo not shown) [Example 99, 3-(4-Chloro-3-((2,3-dihydrobenzo[f][1,4]oxazepin-4(5H)-yl)methyl)phenyl)-3-(1,4-dimethyl-1H-benzo[d][1,2,3]triazol-5-yl)propanoic Acid, Formic Acid Salt], `Cc1ccc([C@H](CC(=O)O)c2ccc3c(nnn3C)c2C)cc1CN1Cc2ccccc2OC(C)(C)C1` [Example 109, (S)-3-(1,4-dimethyl-1H-benzo[d][1,2,3]triazol-5-yl)-3-(3-((2,2-dimethyl-2,3-dihydrobenzo[f][1,4]oxazepin-4(5H)-yl)methyl)-4-methylphenyl)propanoic Acid, Formic Acid Salt] is lower in EC50: 1000 to 10000 nM for the first, 100 to 1000 nM for the second.

Compared with `CCC1CN(Cc2cc([C@@H](c3ccc4c(nnn4C)c3C)C(C)C(=O)O)ccc2C)Cc2ccccc2O1` (stereo partly drawn) [Example 100, (3S)-3-(1,4-dimethyl-1H-benzo[d][1,2,3]triazol-5-yl)-3-(3-((2-ethyl-2,3-dihydrobenzo[f][1,4]oxazepin-4(5H)-yl)methyl)-4-methylphenyl)-2-methylpropanoic Acid], `CCC1CN(Cc2cc([C@H](c3ccc4c(nnn4C)c3C)C(C)C(=O)O)ccc2C)Cc2ccccc2O1` (stereo partly drawn) [Example 102, (3R)-3-(1,4-dimethyl-1H-benzo[d][1,2,3]triazol-5-yl)-3-(3-((2-ethyl-2,3-dihydrobenzo[f][1,4]oxazepin-4(5H)-yl)methyl)-4-methylphenyl)-2-methylpropanoic Acid] is lower in EC50: 10 to 100 nM for the first, less than 1 nM for the second.

First: CC[C@@H]1CN(Cc2cc(C(c3ccc4c(c3)nnn4C)C(C)(C)C(=O)O)ccc2C)Cc2ccccc2O1 (stereo partly drawn) [Example 103, Ammonium 3-(3-(((R)-2-Ethyl-2,3-dihydrobenzo[f][1,4]oxazepin-4(5H)-yl)methyl)-4-methylphenyl)-2,2-dimethyl-3-(1-methyl-1H-benzo[d][1,2,3]triazol-5-yl)propanoate]
Second: CC[C@@H]1CN(Cc2cc(C(c3ccc(F)cc3C)C(C)(C)C(=O)O)ccc2C)Cc2ccccc2O1 (stereo partly drawn) [Example 115, 3-(3-(((R)-2-ethyl-2,3-dihydrobenzo[f][1,4]oxazepin-4(5H)-yl)methyl)-4-methylphenyl)-3-(4-fluoro-2-methylphenyl)-2,2-dimethylpropanoic Acid, Formic Acid Salt]
The EC50 of the first is lower: less than 1 nM for the first, 1000 to 10000 nM for the second. The first is the more potent here.

First: Cc1ccc(C(c2ccc3c(nnn3C)c2C)C(C)(C)C(=O)O)cc1CN1CCCc2ccccc2C1 (stereo not shown) [Example 104, 3-(3-((4,5-Dihydro-1H-benzo[c]azepin-2(3H)-yl)methyl)-4-methylphenyl)-3-(1,4-dimethyl-1H-benzo[d][1,2,3]triazol-5-yl)-2,2-dimethylpropanoic acid]
Second: CCN1CCN(Cc2cc(C(c3ccc4c(nnn4C)c3C)C(C)(C)C(=O)O)ccc2C)Cc2ccccc21 (stereo not shown) [Example 111, 3-(1,4-dimethyl-1H-benzo[d][1,2,3]triazol-5-yl)-3-(3-((1-ethyl-2,3-dihydro-1H-benzo[e][1,4]diazepin-4(5H)-yl)methyl)-4-methylphenyl)-2,2-dimethylpropanoic Acid, Formic Acid Salt]
The EC50 of the first is lower: 1 to 10 nM for the first, 10 to 100 nM for the second.

Compared with `Cc1ccc(C(CC(=O)O)c2ccc3c(nnn3C)c2C)cc1CN1Cc2ccccc2CC(C)(C)C1` (stereo not shown) [Example 105, Ammonium 3-(1,4-dimethyl-1H-benzo[d][1,2,3]triazol-5-yl)-3-(3-((4,4-dimethyl-4,5-dihydro-1H-benzo[c]azepin-2(3H)-yl)methyl)-4-methylphenyl)propanoate], `Cc1ccc([C@@H](CC(=O)O)c2ccc3c(nnn3C)c2C)cc1CN1Cc2ccccc2OC(C)(C)C1` [Example 110, (R)-3-(1,4-dimethyl-1H-benzo[d][1,2,3]triazol-5-yl)-3-(3-((2,2-dimethyl-2,3-dihydrobenzo[f][1,4]oxazepin-4(5H)-yl)methyl)-4-methylphenyl)propanoic Acid, Formic Acid Salt] is lower in EC50: 10 to 100 nM for the first, less than 1 nM for the second.

First: CCC1Cc2ccccc2CN(Cc2cc(C(CC(=O)O)c3ccc4c(nnn4C)c3C)ccc2C)C1 (stereo not shown) [Example 106, 3-(1,4-Dimethyl-1H-benzo[d][1,2,3]triazol-5-yl)-3-(3-((4-ethyl-4,5-dihydro-1H-benzo[c]azepin-2(3H)-yl)methyl)-4-methylphenyl)propanoic Acid]
Second: CC[C@@H]1CN(Cc2cc(C(CC(=O)O)c3ccc4c(nnn4C)c3C)ccc2C)Cc2cccnc2O1 (stereo partly drawn) [Example 116, 3-(1,4-Dimethyl-1H-benzo[d][1,2,3]triazol-5-yl)-3-(3-(((R)-2-ethyl-2,3-dihydropyrido[3,2-f][1,4]oxazepin-4(5H)-yl)methyl)-4-methylphenyl)propanoic Acid, Formic Acid Salt]
The EC50 of the first is lower: 100 to 1000 nM for the first, 1000 to 10000 nM for the second.

Compared with `Cc1cc2c(cn1)CN(Cc1cc(C(CC(=O)O)c3ccc4c(nnn4C)c3C)ccc1C)CC(C)(C)O2` (stereo not shown) [Example 108, 3-(1,4-dimethyl-1H-benzo[d][1,2,3]triazol-5-yl)-3-(4-methyl-3-((2,2,8-trimethyl-2,3-dihydropyrido[3,4-f][1,4]oxazepin-4(5H)-yl)methyl)phenyl)propanoic Acid, Formic Acid Salt], `Cc1ccc(C(CC(=O)O)c2ccc3c(nnn3C)c2C)cc1Cn1ccnc1CC1CCCCC1` (stereo not shown) [Example 127, 3-(3-((2-(Cyclohexylmethyl)-1H-imidazol-1-yl)methyl)-4-methylphenyl)-3-(1,4-dimethyl1H-benzo[d][1,2,3]triazol-5-yl)propanoic Acid] is lower in EC50: 1000 to 10000 nM for the first, 10 to 100 nM for the second. The second is the more potent here.

`CC[C@@H]1CN(Cc2cc(C(Cc3nnn[nH]3)c3ccc4c(nnn4C)c3C)ccc2C)Cc2ccccc2O1` (stereo partly drawn) [Example 112, (2R)-4-(5-(1-(1,4-dimethyl-1H-benzo[d][1,2,3]triazol-5-yl)-2-(1H-tetrazol-5-yl)ethyl)-2-methylbenzyl)-2-ethyl-2,3,4,5-tetrahydrobenzo[f][1,4]oxazepine, Formic Acid Salt] and `CC[C@@H]1CN(Cc2cc(C(c3ccc4c(nnn4C)c3C)C(C)(C)C(=O)O)ccc2C)Cc2cccnc2O1` (stereo partly drawn) [Example 113, 3-(1,4-Dimethyl-1H-benzo[d][1,2,3]triazol-5-yl)-3-(3-(((R)-2-ethyl-2,3-dihydropyrido[3,2-f][1,4]oxazepin-4(5H)-yl)methyl)-4-methylphenyl)-2,2-dimethylpropanoic Acid] fall in the same range of EC50: 100 to 1000 nM for the first, 100 to 1000 nM for the second.

`CC[C@@H]1CN(Cc2cc(C(CC(=O)O)c3ccc(F)cc3F)ccc2C)Cc2ccccc2O1` (stereo partly drawn) [Example 117, 3-(2,4-Difluorophenyl)-3-(3-(((R)-2-ethyl-2,3-dihydrobenzo[f][1,4]oxazepin-4(5H)-yl)methyl)-4-methylphenyl)propanoic Acid, Formic Acid Salt] and `Cc1ccc(C(CC(=O)O)c2ccc3c(nnn3C)c2C)cc1Cc1cnnn1CC1CCCCC1` (stereo not shown) [Example 128, 3-(3-((1-(Cyclohexylmethyl)-1H-1,2,3-triazol-5-yl)methyl)-4-methylphenyl)-3-(1,4-dimethyl-1H-benzo[d][1,2,3]triazol-5-yl)propanoic acid] fall in the same range of EC50: 1000 to 10000 nM for the first, 1000 to 10000 nM for the second.

`CCC1CCN(Cc2nccn2Cc2cc([C@@H](c3ccc4c(nnn4C)c3C)C(C)(C)C(=O)O)ccc2C)CC1` [Example 122, (S)-3-(1,4-Dimethyl-1H-benzo[d][1,2,3]triazol-5-yl)-3-(3-((2-((4-ethylpiperidin-1-yl)methyl)-1H-imidazol-1-yl)methyl)-4-methylphenyl)-2,2-dimethylpropanoate, Sodium salt] and `Cc1ccc(C(c2ccc3c(nnn3C)c2C)C(C)(C)C(=O)O)cc1Cn1ccnc1CN1CCCC1` (stereo not shown) [Example 124, 3-(1,4-Dimethyl-1H-benzo[d][1,2,3]triazol-5-yl)-2,2-dimethyl-3-(4-methyl-3-((2-(pyrrolidin-1-ylmethyl)-1H-imidazol-1-yl)methyl)phenyl)propanoate, Sodium salt] fall in the same range of EC50: 10 to 100 nM for the first, 10 to 100 nM for the second.

First: Cc1ccc(C(c2ccc3c(nnn3C)c2C)C(C)(C)C(=O)O)cc1Cn1ccnc1CN1CCCCC1 (stereo not shown) [Example 123, 3-(1,4-Dimethyl-1H-benzo[d][1,2,3]triazol-5-yl)-2,2-dimethyl-3-(4-methyl-3-((2-(piperidin-1-ylmethyl)-1H-imidazol-1-yl)methyl)phenyl)propanoate, Sodium salt]
Second: Cc1ccc([C@@H](c2ccc3c(nnn3C)c2C)C(C)(C)C(=O)O)cc1Cn1ccnc1CN1CCCCCC1 [Example 126, (S)-3-(3-((2-(Azepan-1-ylmethyl)-1H-imidazol-1-yl)methyl)-4-methylphenyl)-3-(1,4-dimethyl-1H-benzo[d][1,2,3]triazol-5-yl)-2,2-dimethylpropanoate, Sodium salt]
The EC50 of the first is higher: 10 to 100 nM for the first, 1 to 10 nM for the second.

`Cc1ccc([C@H](c2ccc3c(nnn3C)c2C)C(C)(C)C(=O)O)cc1Cn1ccnc1CC1CCCCCC1` [Example 125, (R)-3-(3-((2-(Cycloheptylmethyl)-1H-imidazol-1-yl)methyl)-4-methylphenyl)-3-(1,4-dimethyl-1H-benzo[d][1,2,3]triazol-5-yl)-2,2-dimethylpropanoate, Sodium salt] was tested, and the EC50 was 100 to 1000 nM.

Same assay, conditions: Homo sapiens; BEAS-2B cells, 48 hours with compound, MTT readout; read-out: EC50 of NQO1 specific activity induction

Molecule `CC[C@@H]1CN(Cc2cc(C(c3ccc4c(nnn4C)c3C)C(C)(C)C(=O)O)ccc2C)Cc2ccccc2O1` (stereo partly drawn) [Example 114, 3-(1,4-Dimethyl-1H-benzo[d][1,2,3]triazol-5-yl)-3-(3-(((R)-2-ethyl-2,3-dihydrobenzo[f][1,4]oxazepin-4(5H)-yl)methyl)-4-methylphenyl)-2,2-dimethylpropanoic Acid, Lithium Salt] has an EC50 of 100 to 1000 nM.
